Our source for the relative viability values is the supplement of paper PMC10307832.

Experiment in all cases: relative viability (nuclei count vs DMSO), 5 days (fraction); higher = more cells survive
Compound in assay [1]: CC(C)(C)c1cc(NC(=O)Nc2ccc(-c3cn4c(n3)sc3cc(OCCN5CCOCC5)ccc34)cc2)no1 [Quizartinib] + CC(=O)Nc1cccc(-n2c(=O)n(C3CC3)c(=O)c3c(Nc4ccc(I)cc4F)n(C)c(=O)c(C)c32)c1 [Trametinib] (partner 0.02 µM)
The essentials:
(§1)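 Relative viability equals treated-well nuclei counts divided by vehicle-well nuclei counts. Counts came from 4× images of lung cancer cell lines grown in 1536-well plates for 5 days after pin-tool dosing on the day after seeding. Dosing used one drug alone or a fixed anchor-drug dose plus five library-drug doses (not always all listed) in √10 steps, and values are medians of duplicate plates.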

Compound in assay [2]: CC(C)(C)c1cc(NC(=O)Nc2ccc(-c3cn4c(n3)sc3cc(OCCN5CCOCC5)ccc34)cc2)no1 [Quizartinib] + CC(=O)c1c(C)c2cnc(Nc3ccc(N4CCNCC4)cn3)nc2n(C2CCCC2)c1=O [Palbociclib] (partner 0.5 µM)
In outline:
as §1

Compound in assay [3]: CC(C)(C)c1cc(NC(=O)Nc2ccc(-c3cn4c(n3)sc3cc(OCCN5CCOCC5)ccc34)cc2)no1 [Quizartinib] + CC1(C)CCC(c2ccc(Cl)cc2)=C(CN2CCN(c3ccc(C(=O)NS(=O)(=O)c4ccc(N[C@H](CCN5CCOCC5)CSc5ccccc5)c(S(=O)(=O)C(F)(F)F)c4)cc3)CC2)C1 [Navitoclax] (partner 0.5 µM)
In outline: as §1

Compound in assay [4]: CC(C)(C)c1cc(NC(=O)Nc2ccc(-c3cn4c(n3)sc3cc(OCCN5CCOCC5)ccc34)cc2)no1 [Quizartinib] + C[C@]1(O)C[C@@H](c2nc(-c3ccc4ccc(-c5ccccc5)nc4c3)c3c(N)nccn32)C1 [Linsitinib] (partner 1 µM)
In outline: as §1

PC-3 [JPC-3]: the relative viability in assay [1] (first compound 0.001 µM) was determined as 0.672; in assay [1] (first compound 0.003162 µM), 0.754; in assay [1] (first compound 0.01 µM), 0.705; in assay [1] (first compound 0.03162 µM), 0.663; in assay [1] (first compound 0.1 µM) it was 0.643; in assay [2] (first compound 0.001 µM), 0.531. Moreover, the relative viability in assay [2] (first compound 0.003162 µM) amounted to 0.545; in assay [2] (first compound 0.01 µM), 0.598; in assay [2] (first compound 0.03162 µM), 0.588; in assay [2] (first compound 0.1 µM), 0.504; in assay [3] (first compound 0.001 µM), 0.703; in assay [3] (first compound 0.003162 µM), 0.859. For the same cell line, the relative viability in assay [3] (first compound 0.01 µM) came out at 0.768; in assay [3] (first compound 0.03162 µM), 0.835; in assay [3] (first compound 0.1 µM), 0.821; in assay [4] (first compound 0.001 µM), 0.853; in assay [4] (first compound 0.003162 µM), 0.951; in assay [4] (first compound 0.01 µM) it was 0.931. The relative viability in assay [4] (first compound 0.03162 µM) was 0.988; in assay [4] (first compound 0.1 µM), 0.933.
For PC-14, the relative viability in assay [1] (first compound 0.001 µM) amounted to 0.692; in assay [1] (first compound 0.003162 µM) it was 0.726; in assay [1] (first compound 0.01 µM), 0.977; in assay [1] (first compound 0.1 µM), 0.836; in assay [2] (first compound 0.001 µM), 0.485; in assay [2] (first compound 0.003162 µM) it was 0.457. The relative viability worked out at 0.488 in assay [2] (first compound 0.01 µM); 0.477 in assay [2] (first compound 0.1 µM); 1 in assay [3] (first compound 0.001 µM); 0.892 in assay [3] (first compound 0.003162 µM); 1.09 in assay [3] (first compound 0.01 µM); 0.966 in assay [3] (first compound 0.03162 µM). Moreover, the relative viability stood at 0.977 in assay [3] (first compound 0.1 µM); 0.922 in assay [4] (first compound 0.001 µM); 0.875 in assay [4] (first compound 0.003162 µM); 0.942 in assay [4] (first compound 0.01 µM); 0.986 in assay [4] (first compound 0.03162 µM); 0.99 in assay [4] (first compound 0.1 µM).
RERF-LC-KJ: the relative viability in assay [1] (first compound 0.001 µM) stood at 0.797; in assay [1] (first compound 0.003162 µM) it was 0.849; in assay [1] (first compound 0.01 µM) it was 0.942; in assay [1] (first compound 0.03162 µM), 0.62; in assay [1] (first compound 0.1 µM), 0.844; in assay [2] (first compound 0.001 µM), 1.05. Besides, the relative viability in assay [2] (first compound 0.003162 µM) was 1.05; in assay [2] (first compound 0.01 µM), 1.17; in assay [2] (first compound 0.03162 µM), 0.984; in assay [2] (first compound 0.1 µM) it was 1.02; in assay [3] (first compound 0.001 µM), 0.854; in assay [3] (first compound 0.003162 µM) it was 0.699. The relative viability in assay [3] (first compound 0.01 µM) is 1.08; in assay [3] (first compound 0.03162 µM) it was 0.918; in assay [3] (first compound 0.1 µM), 0.688; in assay [4] (first compound 0.001 µM), 0.79; in assay [4] (first compound 0.003162 µM) it was 0.878; in assay [4] (first compound 0.01 µM) it was 0.941. For the same cell line, the relative viability in assay [4] (first compound 0.03162 µM) is 0.843; in assay [4] (first compound 0.1 µM), 0.92.
For SK-LU-1, the relative viability in assay [1] (first compound 0.001 µM) is 0.464; in assay [1] (first compound 0.003162 µM), 0.372; in assay [1] (first compound 0.01 µM), 0.515; in assay [1] (first compound 0.03162 µM), 0.394; in assay [1] (first compound 0.1 µM), 0.434; in assay [2] (first compound 0.001 µM), 0.366. Moreover, the relative viability in assay [2] (first compound 0.003162 µM) is 0.361; in assay [2] (first compound 0.01 µM), 0.443; in assay [2] (first compound 0.03162 µM) it was 0.381; in assay [2] (first compound 0.1 µM), 0.388; in assay [3] (first compound 0.001 µM), 0.852; in assay [3] (first compound 0.003162 µM) it was 0.771. Also, the relative viability in assay [3] (first compound 0.01 µM) stood at 0.979; in assay [3] (first compound 0.03162 µM), 0.72; in assay [3] (first compound 0.1 µM), 1.07; in assay [4] (first compound 0.001 µM), 0.941; in assay [4] (first compound 0.003162 µM), 1.07; in assay [4] (first compound 0.01 µM), 1.31. For the same cell line, the results for the relative viability in assay [4] (first compound 0.03162 µM) and in assay [4] (first compound 0.1 µM) were 1.11 and 0.906, respectively.
As to SK-MES-1, the relative viability in assay [1] (first compound 0.001 µM) is 0.587; in assay [1] (first compound 0.003162 µM), 0.542; in assay [1] (first compound 0.01 µM), 0.553; in assay [1] (first compound 0.03162 µM), 0.478; in assay [1] (first compound 0.1 µM) it was 0.512; in assay [2] (first compound 0.001 µM) it was 0.338. The relative viability is 0.286 in assay [2] (first compound 0.003162 µM); 0.362 in assay [2] (first compound 0.01 µM); 0.299 in assay [2] (first compound 0.03162 µM); 0.292 in assay [2] (first compound 0.1 µM); 1.05 in assay [3] (first compound 0.001 µM); 1.1 in assay [3] (first compound 0.003162 µM). The relative viability in assay [3] (first compound 0.01 µM) amounted to 1.35; in assay [3] (first compound 0.03162 µM), 1.13; in assay [3] (first compound 0.1 µM), 1.26; in assay [4] (first compound 0.001 µM), 1.03; in assay [4] (first compound 0.003162 µM), 1; in assay [4] (first compound 0.01 µM), 1.14. Further, the relative viability in assay [4] (first compound 0.03162 µM) was found to be 0.975; in assay [4] (first compound 0.1 µM) it was 0.996.
Take SW 1573: the relative viability in assay [1] (first compound 0.001 µM) was 0.594; in assay [1] (first compound 0.003162 µM), 0.47; in assay [1] (first compound 0.01 µM), 0.711; in assay [1] (first compound 0.1 µM) it was 0.655; in assay [2] (first compound 0.001 µM) it was 0.367; in assay [2] (first compound 0.003162 µM), 0.367. The relative viability in assay [2] (first compound 0.01 µM) stood at 0.493; in assay [2] (first compound 0.1 µM) it was 0.434; in assay [3] (first compound 0.001 µM) it was 1.1; in assay [3] (first compound 0.003162 µM), 0.864; in assay [3] (first compound 0.01 µM), 0.954; in assay [3] (first compound 0.03162 µM) it was 0.981. The relative viability in assay [3] (first compound 0.1 µM) was found to be 0.968; in assay [4] (first compound 0.001 µM), 0.738; in assay [4] (first compound 0.003162 µM), 0.691; in assay [4] (first compound 0.01 µM), 0.81; in assay [4] (first compound 0.03162 µM), 0.642; in assay [4] (first compound 0.1 µM), 0.8.
For UMC-11, the relative viability in assay [1] (first compound 0.001 µM) came to 0.417; in assay [1] (first compound 0.003162 µM), 0.722; in assay [1] (first compound 0.01 µM), 0.714; in assay [1] (first compound 0.03162 µM) it was 0.728; in assay [1] (first compound 0.1 µM) it was 0.644; in assay [2] (first compound 0.003162 µM), 0.333. In addition, the relative viability in assay [2] (first compound 0.01 µM) is 0.339; in assay [2] (first compound 0.03162 µM) it was 0.321; in assay [2] (first compound 0.1 µM), 0.317; in assay [3] (first compound 0.001 µM), 0.271; in assay [3] (first compound 0.003162 µM), 0.278; in assay [3] (first compound 0.01 µM) it was 0.364. Also, the relative viability in assay [3] (first compound 0.03162 µM) was 0.346; in assay [3] (first compound 0.1 µM), 0.307; in assay [4] (first compound 0.001 µM), 1.05; in assay [4] (first compound 0.003162 µM), 0.964; in assay [4] (first compound 0.01 µM), 1.06; in assay [4] (first compound 0.03162 µM) it was 0.914. Further, the relative viability in assay [4] (first compound 0.1 µM) stood at 1.02.
